Assay results as given in ChEMBL document CHEMBL1201862, “PubChem BioAssay data set” (2004).
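Following 48 hours of exposure in 96-well plates, responses at five concentrations were used to interpolate endpoints linearly. GI50 = concentration required for 50% inhibition of growth.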 Calls of active or inactive are those of the source. Cut-off read from the data, not from the text of the source: active = GI50 up to about 1.1 µM and inactive = higher.

Tests used:
Assay in all cases: inhibition of tumour cell growth, NCI panel, 48 h
NCI-H522 = system: NCI-H522
SN12C = system: SN12C
PC-3 = system: PC-3
K562 = system: K562
MOLT-4 = system: MOLT-4
HOP-92 = system: HOP-92
T47D = system: T47D
U-251 = system: U-251
SF-295 = system: SF-295
LOX IMVI = system: LOX IMVI
DU-145 = system: DU-145
HCT-15 = system: HCT-15
MCF7 = system: MCF7
HOP-62 = system: HOP-62
HCC 2998 = system: HCC 2998
SF-268 = system: SF-268
HT-29 = system: HT-29
A549 = system: A549
RXF 393 = system: RXF 393
TK-10 = system: TK-10
SK-OV-3 = system: SK-OV-3
MDA-MB-231 = system: MDA-MB-231
HL-60 = system: HL-60
UACC-257 = system: UACC-257
OVCAR-8 = system: OVCAR-8
NCI-H460 = system: NCI-H460
OVCAR-4 = system: OVCAR-4
SNB-75 = system: SNB-75
EKVX = system: EKVX
A498 = system: A498
M14 = system: M14
NCI-H23 = system: NCI-H23
SF-539 = system: SF-539
Malme-3M = system: Malme-3M
KM12 = system: KM12
BT-549 = system: BT-549
786-0 = system: 786-0
IGROV-1 = system: IGROV-1
SW-620 = system: SW-620
HCT-116 = system: HCT-116
NCI-H226 = system: NCI-H226
Hs-578T = system: Hs-578T
OVCAR-5 = system: OVCAR-5
MDA-N = system: MDA-N
CCRF-CEM = system: CCRF-CEM
UO-31 = system: UO-31
COLO 205 = system: COLO 205
MDA-MB-435 = system: MDA-MB-435
SR = system: SR
NCI/ADR-RES = system: NCI/ADR-RES
SNB-19 = system: SNB-19
SK-MEL-5 = system: SK-MEL-5
CAKI-1 = system: CAKI-1
SK-MEL-28 = system: SK-MEL-28
RPMI-8226 = system: RPMI-8226
OVCAR-3 = system: OVCAR-3
ACHN = system: ACHN
UACC-62 = system: UACC-62
SK-MEL-2 = system: SK-MEL-2

Measured: GI50

CN(C)CCOc1ccc2c(c1)C/C(=C/c1ncc([N+](=O)[O-])n1C)C2=O
active: NCI-H522 918 nM | MCF7 703 nM | NCI-H460 508 nM | NCI-H23 1000 nM | BT-549 1040 nM | IGROV-1 233 nM | SR 242 nM
inactive: SN12C 2580 nM | PC-3 3400 nM | K562 1490 nM | MOLT-4 1210 nM | HOP-92 1830 nM | T47D 6030 nM | U-251 3510 nM | SF-295 3100 nM | LOX IMVI 2650 nM | DU-145 3130 nM | HOP-62 2100 nM | HCC 2998 2030 nM | SF-268 1890 nM | HT-29 1350 nM | A549 1170 nM | RXF 393 1170 nM | TK-10 3520 nM | SK-OV-3 4800 nM | MDA-MB-231 1910 nM | HL-60 3250 nM | UACC-257 3790 nM | OVCAR-8 1430 nM | OVCAR-4 1530 nM | SNB-75 2280 nM | EKVX 3610 nM | A498 2230 nM | M14 2290 nM | SF-539 3970 nM | Malme-3M 1940 nM | KM12 2610 nM | 786-0 1820 nM | SW-620 1600 nM | HCT-116 1270 nM | NCI-H226 1460 nM | Hs-578T 12900 nM | OVCAR-5 3510 nM | MDA-N 3940 nM | CCRF-CEM 2700 nM | UO-31 1680 nM | COLO 205 1560 nM | MDA-MB-435 2990 nM | NCI/ADR-RES 8360 nM | SNB-19 3390 nM | SK-MEL-5 1640 nM | CAKI-1 2640 nM | SK-MEL-28 17600 nM | RPMI-8226 1370 nM | OVCAR-3 2110 nM | ACHN 1360 nM | UACC-62 1950 nM | SK-MEL-2 1670 nM
377 nM: HCT-15
